The record followed here is patent US9867798B2, “Ladostigil therapy for immunomodulation” (priority 2012, dated 2018).

In data set [1] the test system is mice with DSS-induced colitis. The data set is described as follows: Acute colitis induced by DSS in mice: body weight, stool, bleeding, DAI, colon length. In kind it is in vivo, BALB/c OlaHsd mice. The procedure:
(§1) BALB/c OlaHsd male mice aged 8-9 weeks and weighing 25-30 g were purchased from Harlan (Jerusalem, Israel) and housed in standard cages of up to 5 per cage in the pathogen free Animal Facility of the Institute for Drug Research. All experiments were performed in accordance with the Principles of Laboratory Animal Care (NIH publication #85-23, revised 1985) protocols MD-09-12197-4. Acute colitis was induced in mice by administration of 5% DSS solution (M.Wt.=[…], MP Biomedicals, LLC, Solon, Ohio, USA) in water for 8 days. The DSS solution was freshly prepared every day. Mice were provided with food and water or DSS solution ad libitum during the experiment. They were divided into groups of 10 as follows: Vehicle control group: mice drank water and were given water (1 ml/100 gm) once daily by gavage for 8 days; Drug control group: mice drank water and were given ladostigil (10 mg/kg) by gavage once daily for 8 days. DSS untreated group: mice drank 5% DSS for 7 days and water on the 8th day and were given water (1 ml/100 g) once daily by gavage for 8 days. Drug treated group: mice drank 5% DSS followed by water as above and were given ladostigil (5 or 10 mg/kg) by gavage once daily for 8 days. The volume of 5% DSS solution consumed was measured for each group of mice and the average volume/mouse was calculated. On the eighth day, the mice were anesthetized by CO2 and sacrificed by cervical dislocation 2 h after the last dose of ladostigil. Samples of colon and spleen were taken for measurement of cytokines MPO, cytokines and ChE activity.
Body weight, stool consistency and the presence of blood in the stools was recorded daily for each mouse. […] The score ranged between 0-4 for all three parameters and was composed as follows: Weight loss: none=0, 1-5%=1, 5-10%=2, 10-20%=3, >20%=4. Percent of weight loss on days 7 and 8 relative to the first day was calculated for all the groups. […] Bleeding: none=0, hemoccult=2, gross bleeding=4. The maximum DAI score was 4 based on a combination of scores of weight loss (relative to that on the first day of the experiment), stool consistency and bleeding, divided by 3. After sacrifice the length of the colon segment from the cecum to the rectum was measured.

In data set [2] the test system is cholinesterase (AChE and BuChE). The data set is described as follows: Cholinesterase activity in spleen and colon of mice drinking DSS (Ellman). In kind it is in vivo. As to conditions: rivastigmine 1 mg/kg/day. The procedure: as §1
(§2) In experiments on the effect of chronic treatment with ladostigil on ChE activity in mice drinking DSS, the spleen was rapidly removed as described above, together with a colon segment of about 0.5 cm in length taken from the proximal area. Spleen and colon segments were washed in cold phosphate buffered saline (PBS) before they were frozen at −80° C. For assay, the tissue was unfrozen and weighed and PBS was added to each tissue at a ratio of 1 mg tissue to 1 ml. Tissues were homogenized at a speed of 24,000 rpm in cold phosphate buffer pH 7 containing 0.1% Triton and centrifuged at 14000 rpm. Aliquots of plasma and the supernatant from the spleen and colon were incubated with acetylthiocholine and dinitro benzoic acid in phosphate buffer pH 7 and the rate of development of the yellow color was measured as described by Ellman et al, (1961). Percent inhibition of ChE activity was calculated by comparison with that of control mice given water by gavage. Protein concentration was determined by means of by Pierce BCA Protein Assay Kit (Thermo Scientific, USA) according to the manufacturer's instructions. It is noted, that ChE activity in the colon and spleen of mice is attributed mainly to that of AChE while that in mouse plasma is mainly attributable to BuChE.

Data set [3] relates to LPS-induced TNF-α, IL-1β and IL-6 in spleen. The data set is described as follows: Cytokines in spleen of mice injected with LPS, comparison to rivastigmine (Example 5). As to conditions: for IL-1β in spleen / IL-6 in spleen / TNF-α in spleen: four hours. It counts as in vivo, Balb/c mice. The procedure: Male Balb/c mice (aged 8-9 weeks, weighing 25-30 gm) were given ladostigil (10 or 20 mg/kg) or rivastigmine (0.5 or 1 mg/kg) by gavage, or water (1 ml/100 g), followed 15 min later by an intra-peritoneal injection of LPS (10 mg/kg). Control mice were given LPS and water by gavage (1 ml/100 g). For measurement of cytokine levels in the spleen and blood the mice were sacrificed 4 h after drug administration, blood collected in heparinized tubes and centrifuged to obtain plasma and the spleen was rapidly removed and weighed. Plasma and spleen were frozen in liquid nitrogen and stored at −80° C. until use. For measurement of cytokine levels, the tissue was diluted in PBS containing 0.8% NaCl, 0.144% NaHPO4, 0.024% KH2PO4 and protease inhibitor cocktail (Sigma Israel, P8340) and homogenized in an Ultra-TURRAX® homogenizer at a speed of 24,000 rpm, centrifuged at 14000 g for 15 min at 4° C. Cytokines were detected in the supernatant by using ELISA kits for cytokines IL-1β, IL-6, and TNF-α (Biolegend) following the manufacturer's protocol. Each experiment was performed twice with 8 replicate measures in each experiment. Protein concentration in each sample was determined with Bradford reagent (Bio-RAD, 500-0006).

A further data set deals with ChE. The data set is described as follows: Cholinesterase inhibition in plasma and spleen of LPS injected mice (Example 5). In kind it is in vivo, Balb-C mice. To be noted: for Inhibition of ChE, plasma / Inhibition of ChE, spleen: 60 min after oral administration, LPS injected mice. The procedure: as §2
For the LPS experiment involving a single administration, ladostigil (10 or 20 mg/kg) in a volume of 1 ml/100 g or water (1 ml/100 g) were given by gavage to groups of 6-8 Balb-C male mice weighing 24-30 g and LPS as described above. […] Blood was taken into heparinized tubes and centrifuged at 14000 rpm at room temperature for 4 min to provide plasma and the spleen was rapidly removed, weighed, frozen in liquid nitrogen and stored at −80° C. until assayed. It is noted, that ChE inhibition in mouse plasma is mainly attributed to BuChE activity, and in mouse spleen—mainly to AChE activity.
Percent inhibition of ChE activity was calculated by comparison with that of control mice given water by gavage as described in Example 1 above.

[4] abbreviates: rivastigmine 0.5 mg/kg + LPS 10 mg/kg.
Where [5] appears, read: rivastigmine 1 mg/kg + LPS 10 mg/kg.

In the case of `CCN(C)C(=O)Oc1cccc([C@H](C)N(C)C)c1` [Rivastigmine, reference compound], the “Prevention of weight loss induced by DSS” value in data set [1] (5% DSS, rivastigmine) is recorded as “did not prevent the weight loss”. Moreover, the Body weight decrease in data set [1] (mice given 1 mg/kg/day) is listed as 4.7%. In data set [2], the “Inhibition of colonic ChE” value is greater than 60%. Further, in data set [3] (rivastigmine 0.5 mg/kg + LPS), the “Effect on levels of the three cytokines in spleen” value was “had no effect on levels of any of the three cytokines”. For the same compound, in data set [3] (setting [4]), the IL-1β in spleen is 551 ± 31 pg/mg, the IL-6 in spleen is listed as 569 ± 89 pg/mg and the TNF-α in spleen was 16.8 ± 2.5 pg/mg. In data set [3] (rivastigmine 1 mg/kg + LPS), the “Effect on cytokine levels in spleen” value is “significantly reduced IL-1β and IL-6, but not of TNF-α”. Also, in data set [3] (setting [5]), the IL-1β in spleen was found to be 440 ± 40 pg/mg, the IL-6 in spleen was 462 ± 66 pg/mg and the TNF-α in spleen is 16.5 ± 2.2 pg/mg. In the data set with ChE (rivastigmine 0.5 mg/kg), the “Inhibition of ChE, plasma” value is recorded as 28 ± 4.5 % and the “Inhibition of ChE, spleen” value is given as 32.6 ± 5.6 %. In the data set with ChE (rivastigmine 1 mg/kg), the “Inhibition of ChE in plasma and spleen, compared with rivastigmine 0.5 mg/kg” value was “about twice as much”; the “Inhibition of ChE, plasma” value worked out at 56.8 ± 6.1 %; the “Inhibition of ChE, spleen” value came out at 65.8 ± 3.2 %.
